Data published in the NIST ThermoML archive (doi:10.1021/je800579j).

Experiment: refractive index (Na D-line) (dimensionless); xn = mol fraction of the nth substance listed
Settings: Liquid, Standard Abbe refractometry

Cc1cc(C)cc(C)c1 [1,3,5-trimethylbenzene] + C1COCCO1
refractive index
Settings | 288.15 K | 293.15 K | 298.15 K | 303.15 K | 308.15 K | 313.15 K | 318.15 K
x2 = 0 | 1.502 | 1.4995 | 1.4969 | 1.4944 | 1.4918 | 1.4893 | 1.4868
x2 = 0.0696 | 1.4969 | 1.4942 | 1.4915 | 1.4888 | 1.4861 | 1.4834 | 1.4807
x2 = 0.1408 | 1.4916 | 1.4889 | 1.4862 | 1.4835 | 1.4807 | 1.4779 | 1.4751
x2 = 0.2098 | 1.4865 | 1.4838 | 1.4811 | 1.4784 | 1.4756 | 1.4729 | 1.4701
x2 = 0.28 | 1.4812 | 1.4786 | 1.4758 | 1.4731 | 1.4703 | 1.4676 | 1.4648
x2 = 0.3558 | 1.4755 | 1.4729 | 1.4702 | 1.4675 | 1.4648 | 1.4621 | 1.4593
x2 = 0.4276 | 1.4701 | 1.4675 | 1.4648 | 1.4622 | 1.4595 | 1.4568 | 1.4542
x2 = 0.5066 | 1.4641 | 1.4615 | 1.4589 | 1.4563 | 1.4537 | 1.451 | 1.4484
x2 = 0.5801 | 1.4584 | 1.4558 | 1.4532 | 1.4506 | 1.448 | 1.4454 | 1.4428
x2 = 0.6548 | 1.4525 | 1.45 | 1.4474 | 1.4449 | 1.4423 | 1.4397 | 1.4371
x2 = 0.7227 | 1.447 | 1.4445 | 1.442 | 1.4395 | 1.437 | 1.4344 | 1.4318
x2 = 0.7936 | 1.4412 | 1.4388 | 1.4363 | 1.4338 | 1.4313 | 1.4288 | 1.4263
x2 = 0.8663 | 1.4354 | 1.433 | 1.4306 | 1.4282 | 1.4257 | 1.4233 | 1.4208
x2 = 0.9319 | 1.43 | 1.4277 | 1.4254 | 1.4231 | 1.4208 | 1.4184 | 1.4161
